Measurements: patent publication US20050250799A1, “Protease inhibitors for treatment of wrinkles” (priority 2004, published 2005)

How the values were obtained:
[1] = system: caspase-9 (−/−) null fibroblasts; conditions: cited from earlier work
UVB-irradiated mice ears = test: Example 2: ear thickness on UVB-exposed skin; assay type: in vivo, mice (Swiss Webster strain); conditions: 1% in DMSO; for Left ear thickness (mean): UVB 80 mJ/cm^2, 5 μl on days 0, 1, 2
Description: The ear thickness of mice (Swiss Webster strain, male, 7 weeks of age, n=3/group) was measured with a thickness gauge (Mitsutoyo Corp.) on day 0. After measuring the thickness of both ears, both ears were UVB-irradiated (80 mJ/cm^2). 5 μl of 1% ucf-101 in DMSO was applied to the left ear and 5 μl of DMSO was applied to the right ear. After 24 hours (day 1), ear thickness was measured and a second dose administered (left ear 1% ucf-101 in DMSO; right ear: DMSO). After a second 24 hours (day 2), ear thickness was again measured and a third dose administered (left ear 1% ucf-101 in DMSO; right ear: DMSO). Ear thickness was then monitored over four additional consecutive days (days 3-6).

back skin of mice = test: Example 5: skin irritation score on back skin; assay type: in vivo, mice (FVB strain); conditions: 0.1% in 25% DMSO + 75% ethanol, 5 μl on back skin, score 0 (no erythema) to 4
Description: The hair of the back skin of mice (FVB strain, female, 7 weeks of age, n=3/group) was clipped by an electric clipper on day 0. 5 μl of test sample solution (˜1 cm diameter) was applied on the back skin. After 24 hours (day 1), skin irritation was measured on the basis of a scoring system (0: no erythema; 1: very slight erythema; 2: well-defined erythema; 3: moderate erythema; 4: several erythema and edema) and a second dose administered. After a second 24 hours (day 2), skin irritation was measured and a third dose administered. After a third 24 hours (day 3), skin irritation was again measured.

[2] = system: UVB-induced vessel dilation; test: Example 3: dermal blood vessel area (CD31 staining) after UVB; assay type: in vivo, hairless Skh-1 mice; conditions: UVB + 1% in DMSO, 100 μl on back skin three times weekly, 10 weeks; dermis
Description: (§1) Five groups of mice (7-week-old female hairless Skh-1 mice, n=3/group) were used: group 1: UVB+1% ucf-101 in DMSO; group 2: UVB+DMSO control; group 3: UVB+0.1% ucf-101 in acetone; group 4: UVB+acetone control; group 5: no UVB control.
(§2) Groups 1, 2, 3 and 4 were exposed to UVB irradiation using fluorescent lamps (Southern New England Ultraviolet) to deliver 0.35 mW/cm^2 at the dorsal skin surface of the mice. After irradiation, the indicated samples (100 μl each) for each group were applied to the back skin. This procedure was repeated three times weekly for ten weeks, to simulate chronic UVB exposure. […] The total cumulative dose was 6.54 J/cm^2 UVB.
(§3) After 10 weeks, skin wrinkling was evaluated using five categories (0: no wrinkle; 1: slight wrinkle; 2: clear wrinkle; 3: strong wrinkle; 4: severe wrinkle). Mice of group 1 and group 2 were sacrificed and back skin samples were snap-frozen in liquid nitrogen. Immunohistochemical staining was performed on 7-micrometer frozen sections using a monoclonal rat anti-mouse CD31 antibody (BD Pharmingen). Representative sections were obtained from UVB irradiated mice and were analyzed using a Nikon E-600 microscope. Images were captured with a Spot digital camera (Diagnostic Instruments), and morphometric analyses were performed using the IP-LAB software. Areas occupied by blood vessels were determined in the dermis.

[3] = system: UVB-induced wrinkle formation; test: Example 3: UVB-induced skin wrinkling; assay type: in vivo, hairless Skh-1 mice; conditions: 100 μl on back skin three times weekly, 10 weeks, category 0 (no wrinkle) to 4 (severe wrinkle)
Description: as §1, §2, §3

mice ears [4] = test: Example 1: effect on ear thickness (skin irritancy); assay type: in vivo, mice (FVB strain); conditions: for Left ear thickness (mean): 10 μl on left ear
Description: Control thickness of mice ears (FVB strain, male, 7 weeks of age, n=3/group) was measured with a thickness gauge (Mitsutoyo Corp.). After measuring the thickness of both ears, 10 μl of ucf-101 solution (1.0% or 0.1%) was applied to the left ear and 10 μl of solvent was applied to the right ear. Ear thickness was measured for three consecutive days after administration.

[5] = system: various other serine proteases; conditions: various other serine proteases tested; cited from earlier work
[6] = system: UVB-induced wrinkle formation; test: Example 6: UVB-induced skin wrinkling; assay type: in vivo, Skh-1 hairless mice; conditions: UVB + 0.1% in 25% DMSO + 75% ethanol, 100 μl on back skin three times weekly, 10 weeks; category 0 (no wrinkle) to 4 (severe wrinkle)
[7] = target: T1, Omi/HtrA2 (His-Omi 134-458) (Homo sapiens, UniProt O43464); conditions: cited from earlier work
T1 construct: His
T1 sequence (O43464 134-458): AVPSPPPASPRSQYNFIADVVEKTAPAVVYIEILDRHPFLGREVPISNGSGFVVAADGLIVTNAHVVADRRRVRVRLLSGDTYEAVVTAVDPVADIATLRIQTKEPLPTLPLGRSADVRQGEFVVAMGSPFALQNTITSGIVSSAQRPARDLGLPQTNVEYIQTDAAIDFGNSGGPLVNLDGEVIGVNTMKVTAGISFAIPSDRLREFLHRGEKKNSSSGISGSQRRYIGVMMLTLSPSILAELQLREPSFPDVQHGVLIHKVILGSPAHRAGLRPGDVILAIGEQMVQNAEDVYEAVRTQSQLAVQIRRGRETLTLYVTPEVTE

[8] = system: UVB-induced vessel dilation; test: Example 6: dermal blood vessel area (CD31 staining) after UVB; assay type: in vivo, Skh-1 hairless mice; conditions: UVB + 0.1% in 25% DMSO + 75% ethanol, 100 μl on back skin three times weekly, 10 weeks; dermis
mice ears [9] = test: Example 4: effects of test samples on ear thickness; assay type: in vivo, mice (FVB strain); conditions: 0.1% in 25% DMSO + 75% ethanol, 10 μl on days 0, 1, 2
Description: Control thickness of mice ears (FVB strain, female, 7 weeks of age, n=3/group) was measured with a thickness gauge (Mitsutoyo Corp.) on day 0. After measuring the thickness of both ears, 10 μl of test sample solution was applied to the left ear and 10 μl of solvent was applied to the right ear. After 24 hours (day 1), ear thickness was measured and a second dose administered (left ear: test solution, right ear: solvent). After a second 24 hours (day 2), ear thickness was measured and a third dose administered (left ear: test solution, right ear: solvent).

caspase 1 = target: T2, caspase 1 (Homo sapiens, UniProt P29466); conditions: cited from earlier work
T2 sequence (P29466 120-297 limits assumed): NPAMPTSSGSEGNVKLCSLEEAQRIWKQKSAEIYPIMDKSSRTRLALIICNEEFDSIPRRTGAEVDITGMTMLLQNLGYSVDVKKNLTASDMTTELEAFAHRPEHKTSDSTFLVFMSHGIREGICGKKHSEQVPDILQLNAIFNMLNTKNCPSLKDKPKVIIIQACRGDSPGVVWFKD
T2 sequence (P29466 317-404 limits assumed): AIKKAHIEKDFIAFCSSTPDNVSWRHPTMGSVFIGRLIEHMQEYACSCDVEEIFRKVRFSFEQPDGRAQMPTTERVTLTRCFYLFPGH

caspase 4 = target: T3, caspase 4 (Homo sapiens, UniProt P49662); conditions: cited from earlier work
T3 sequence (P49662 81-270 limits assumed): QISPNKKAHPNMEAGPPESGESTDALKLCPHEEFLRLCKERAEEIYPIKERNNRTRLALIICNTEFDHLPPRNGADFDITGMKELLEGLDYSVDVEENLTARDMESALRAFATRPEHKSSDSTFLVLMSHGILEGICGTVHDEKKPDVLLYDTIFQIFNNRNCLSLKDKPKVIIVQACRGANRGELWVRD
T3 sequence (P49662 290-377 limits assumed): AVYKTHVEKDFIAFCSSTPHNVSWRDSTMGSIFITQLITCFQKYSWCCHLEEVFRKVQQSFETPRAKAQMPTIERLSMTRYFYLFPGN

caspase 3 = target: T4, caspase 3 (Homo sapiens, UniProt P42574); conditions: cited from earlier work
T4 sequence (P42574 29-175 limits assumed): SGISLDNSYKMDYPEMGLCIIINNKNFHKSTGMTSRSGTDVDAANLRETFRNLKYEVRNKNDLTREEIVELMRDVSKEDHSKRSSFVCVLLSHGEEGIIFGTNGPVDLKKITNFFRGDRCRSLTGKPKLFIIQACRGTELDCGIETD
T4 sequence (P42574 176-277 limits assumed): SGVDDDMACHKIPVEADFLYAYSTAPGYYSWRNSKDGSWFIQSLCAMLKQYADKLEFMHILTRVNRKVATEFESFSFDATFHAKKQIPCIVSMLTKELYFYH

caspase 7 = target: T5, caspase 7 (Homo sapiens, UniProt P55210); conditions: cited from earlier work
T5 sequence (P55210 24-198 limits assumed): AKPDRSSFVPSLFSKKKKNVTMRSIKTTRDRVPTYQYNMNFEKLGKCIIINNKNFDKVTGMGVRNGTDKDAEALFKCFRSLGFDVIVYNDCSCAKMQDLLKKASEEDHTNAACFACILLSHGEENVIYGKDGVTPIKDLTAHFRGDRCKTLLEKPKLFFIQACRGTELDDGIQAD
T5 sequence (P55210 207-303 limits assumed): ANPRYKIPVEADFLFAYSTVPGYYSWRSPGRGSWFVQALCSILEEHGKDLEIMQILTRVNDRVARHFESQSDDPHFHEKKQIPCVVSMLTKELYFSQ

O=C1C(=Cc2ccc(-c3ccccc3[N+](=O)[O-])o2)C(=O)N(c2ccccc2)C(=S)N1c1ccccc1 [Ucf-101]
block of Omi/HtrA2 induced cell death [1]: block Omi/HtrA2 induced cell death
Left ear thickness (mean) (UVB-irradiated mice ears; day 0 (before UVB and application)): 31.0 ×0.01 mm
Left ear thickness (mean) (UVB-irradiated mice ears; day 1): 36.3 ×0.01 mm
Left ear thickness (mean) (UVB-irradiated mice ears; day 2): 40.0 ×0.01 mm
Left ear thickness (mean) (UVB-irradiated mice ears; day 3): 42.3 ×0.01 mm
Left ear thickness (mean) (UVB-irradiated mice ears; day 4): 42.7 ×0.01 mm
Left ear thickness (mean) (UVB-irradiated mice ears; day 5): 39.3 ×0.01 mm
Left ear thickness (mean) (UVB-irradiated mice ears; day 6): 38.3 ×0.01 mm
ear thickness (irritancy) compared to control (UVB-irradiated mice ears; UVB-exposed ears): did not increase ear thickness
skin irritation score (back skin of mice; day 0): 0
skin irritation score (back skin of mice; day 1): 0
skin irritation score (back skin of mice; day 2): 0
skin irritation score (back skin of mice; day 3): 0
Percent of vessel area (mean) [2]: 7.1%
Wrinkle category (mean) ([3]; UVB + 0.1% in acetone): 1.67
Wrinkle category (mean) ([3]; UVB + 1% in DMSO): 1.33
Left ear thickness (mean) (mice ears [4]; 0.1% in acetone, day 0 (before application)): 29.0 ×0.01 mm
Left ear thickness (mean) (mice ears [4]; 0.1% in acetone, day 1): 30.0 ×0.01 mm
Left ear thickness (mean) (mice ears [4]; 0.1% in acetone, day 2): 29.3 ×0.01 mm
Left ear thickness (mean) (mice ears [4]; 0.1% in acetone, day 3): 29.0 ×0.01 mm
irritancy (ear thickness compared to solvent alone) (mice ears [4]; 1% in DMSO or 0.1% in acetone): not an irritant
Left ear thickness (mean) (mice ears [4]; 1% in DMSO, day 0 (before application)): 28.0 ×0.01 mm
Left ear thickness (mean) (mice ears [4]; 1% in DMSO, day 1): 28.7 ×0.01 mm
Left ear thickness (mean) (mice ears [4]; 1% in DMSO, day 2): 28.7 ×0.01 mm
Left ear thickness (mean) (mice ears [4]; 1% in DMSO, day 3): 28.3 ×0.01 mm
IC50 [5]: 200 µM
Wrinkle category (mean) [6]: 1.00
IC50 [7]: 9.5 µM
Percent of vessel area (mean) [8]: 4.7%
Left ear thickness (mean) (mice ears [9]; day 0 (before application)): 25.7 ×0.01 mm
Left ear thickness (mean) (mice ears [9]; day 1): 26.3 ×0.01 mm
Left ear thickness (mean) (mice ears [9]; day 2): 27.3 ×0.01 mm
Left ear thickness (mean) (mice ears [9]; day 3): 28.3 ×0.01 mm

CC(C)C[C@H](CC(=O)NO)C(=O)N[C@@H](Cc1ccc2ccccc2c1)C(=O)N[C@@H](C)C(N)=O [TAPI-0]
Wrinkle category (mean) [6]: 1.00
Percent of vessel area (mean) [8]: 8.9%

Ac-YVAD-CHO
Ki (caspase 1): ~0.01 µM
Ki (caspase 4): ~0.01 µM
Ki (caspase 3): ≥ 50 µM
Ki (caspase 7): ≥ 50 µM

NC[C@H]1CC[C@H](C(=O)O)CC1 [Tranexamic acid]
skin irritation score (back skin of mice; day 0): 0
skin irritation score (back skin of mice; day 1): 0
skin irritation score (back skin of mice; day 2): 0
skin irritation score (back skin of mice; day 3): 0
Wrinkle category (mean) [6]: 2.00
Percent of vessel area (mean) [8]: 8.7%

zVAD-FMK
inhibition (caspase 1): inhibits
inhibition (caspase 4): inhibits
inhibition (caspase 3): inhibits
Wrinkle category (mean) [6]: 1.67
inhibition (caspase 7): inhibits
Percent of vessel area (mean) [8]: 8.8%
